US20250179050A1, “POLYMORPH AS THYROID HORMONE RECEPTOR AGONISTS AND USE THEREOF” (XIZANG HAISCO PHARMACEUTICAL CO., LTD., priority 2022, published 2025)

Tests used:
Type in all cases: physicochemical
[1] = Crystal form on leaving to stand at room temperature; settings: room temperature for 3 days
Protocol: To 100 mg of the compound of formula I prepared in Example 1, 1 ml of methanol was added and heated to reflux. 1 ml of acetonitrile was added dropwise, slowly cooled to room temperature, stirred for 3-5 h and centrifuged, and the resulting solid was dried under vacuum overnight at room temperature to give Form U. Form U of the compound of formula I was characterized by XRPD, DSC and TGA, as shown in FIGS. 41-42, respectively. […] Based on the integration results, the roughly estimated mass percentage is about 5.2%. In summary, Form U is a solvate of acetonitrile in a ratio of 1:1 of the compound to acetonitrile.

[2] = Thermal crystal transformation test (hot stage, XRPD)
Protocol: The present invention further provides a method for preparing the polymorph of any one of Form A to Form Z, including: • (1) suspension method: adding a crude free base of the compound of formula I (which can be prepared according to the methods described in WO 2019240938 A1) to a selected single or binary solvent until a suspension is formed and stirring same under suspension at room temperature to 50° C. for a period of time (e.g., 1 h to 3 days, or 2 h to 24 h, or 2 h to 12 h, or 3 h to 5 h), and then centrifuging and separating the suspension, followed by drying, to obtain the product; or • (2) Anti-solvent crystallization method: adding a crude free base of the compound of formula I to an appropriate amount of a good solvent until completely dissolved, taking an amount of the solution and dropwise adding same to a poor solvent or dropwise adding a poor solvent to the solution, and stirring same to precipitate a solid, followed by separation and drying to obtain the product; or • (3) cooling method: adding a crude free base of the compound of formula I to an appropriate amount of a solvent at 50-80° C. until the solid is just completely dissolved, and transferring the solution to an environment at room temperature for cooling, followed by leaving to stand or crystallization under stirring, separation and drying to obtain the product; or • (4) vapor diffusion method: dropwise adding an appropriate amount of a good solvent to an amount of a crude free base of the compound of formula I at room temperature to completely dissolve the sample or formulating same as a saturated solution of a good solvent; and separately taking an amount of the solution, and leaving the clear solution to stand in a poor solvent atmosphere at room temperature until a solid precipitates out, followed by separation, to obtain the product; or • (5) thermal crystal transformation method: placing an amount of the sample on a glass plate on a hot stage, heating same to the target temperature at a rate (e.g., 5-20° C./min, or 10-15° C./min), and maintaining the temperature for a period of time (e.g., 0.5-5 min, or 1-3 min, or 1-2 min), followed by naturally cooling down to room temperature to obtain a solid.
The different crystal forms, as raw materials, were heated to the target temperature on a hot table and held for 1 min, and cooled to room temperature to obtain solids for the XRPD test.

[3] = Stability test 4: 25° C.±2° C., 60% RH±5% RH, HPLC related substances; settings: for Crystal form / Related Substances (%) Maximum individual impurity / Related Substances (%) Total impurity: 25° C.±2° C.
Protocol: The Form C sample was measured using the HPLC method at 25° C.±2° C., 60% RH±5% RH at months 0, 3, 6, 9, and 12 using a double layer pharmaceutical low density polyethylene bag as an inner wrap and a polyester/aluminum/polyethylene pharmaceutical composite bag as an outer wrap.

[4] = Stability test 2: 40° C.±2° C., 75% RH±5% RH, HPLC related substances and crystal form; settings: for Crystal form / Related Substances (%) Maximum individual impurity / Related Substances (%) Total impurity: 40° C.±2° C.
Protocol: The Form C sample was measured using the HPLC method at 40° C.±2° C., 75% RH±5% RH at months 0, 1, 2, 3, and 6 using a double layer pharmaceutical low density polyethylene bag as an inner wrap and a polyester/aluminum/polyethylene pharmaceutical composite bag as an outer wrap.

[5] = Stability test 5: 30° C.±2° C., 65% RH±5% RH, HPLC related substances; settings: for Crystal form / Related Substances (%) Maximum individual impurity / Related Substances (%) Total impurity: 30° C.±2° C.
Protocol: The Form C sample was measured using the HPLC method at 30° C.±2° C., 65% RH±5% RH at months 0, 3, 6, 9, and 12 using a double layer pharmaceutical low density polyethylene bag as an inner wrap and a polyester/aluminum/polyethylene pharmaceutical composite bag as an outer wrap.

[6] = Stability test 1: high temperature, high humidity, light, accelerated conditions, XRPD; settings: 15 days
Protocol: Around 20 mg of samples were weighed into weighing bottles, stored under high temperature (60° C.), high humidity (25° C., 92.5% RH), light (25° C., 4500 Lux), accelerated (40° C., 75% RH) conditions, respectively, and samples were collected at days 7 and 15 for XRPD characterization.

[7] = Dynamic moisture sorption and desorption analysis (DVS)
Protocol: Dynamic Moisture Sorption and Desorption Analysis The dynamic moisture sorption and desorption analysis was determined using DVS Intrinsic (SMS, UK). The test was carried out in a gradient mode with a humidity change of 50%-95%-0%-50%, and a humidity change of 10% per gradient in the range of 0% to 90%, and the gradient endpoint was determined in dm/dt, with the gradient endpoint being dm/dt less than 0.002% and held for 10 minutes. After the test was complete, XRPD analysis of the sample was carried out to confirm whether the solid morphology has changed.

[8] = Stability test 3: 5° C.±3° C., HPLC related substances; settings: for Crystal form / Related Substances (%) Maximum individual impurity / Related Substances (%) Total impurity: 5° C.±3° C.
Protocol: The Form C sample was measured using the HPLC method at 5° C.±3° C. at months 0, 3, 6, 9, and 12 using a double layer pharmaceutical low density polyethylene bag as an inner wrap and a polyester/aluminum/polyethylene pharmaceutical composite bag as an outer wrap.

[2H]C([2H])([2H])[C@@H]1CCc2c(Oc3c(Cl)cc(-n4nc(C#N)c(=O)[nH]c4=O)cc3Cl)n[nH]c(=O)c21 [Form U, (R)-2-(3,5-dichloro-4-((7-(methyl-d3)-1-oxo-2,5,6,7-tetrahydro-1H-cyclopenta [d]pyridazin-4-yl)oxy)phenyl)-3,5-dioxo-2,3,4,5-tetrahydro-1,2,4-triazine-6-carbonitrile]
crystal form after leaving to stand [1]: Form L
crystal form after thermal crystal transformation ([2]; heated to 250° C.): Form C
Results (crystal form after thermal crystal transformation, XRPD) ([2]; target temperature 250° C., heating rate 10° C./min, holding time 1 min): Form C

[2H]C([2H])([2H])[C@@H]1CCc2c(Oc3c(Cl)cc(-n4nc(C#N)c(=O)[nH]c4=O)cc3Cl)n[nH]c(=O)c21 [Form C, (R)-2-(3,5-dichloro-4-((7-(methyl-d3)-1-oxo-2,5,6,7-tetrahydro-1H-cyclopenta [d]pyridazin-4-yl)oxy)phenyl)-3,5-dioxo-2,3,4,5-tetrahydro-1,2,4-triazine-6-carbonitrile]
Crystal form ([3]; 0 months): Form C
Related Substances (%) Maximum individual impurity ([3]; 0 months): 0.05%
Related Substances (%) Total impurity ([3]; 0 months): 0.26%
Crystal form ([3]; 3 months): Form C
Related Substances (%) Maximum individual impurity ([3]; 3 months): 0.05%
Related Substances (%) Total impurity ([3]; 3 months): 0.27%
Crystal form ([3]; 6 months): Form C
Related Substances (%) Maximum individual impurity ([3]; 6 months): 0.05%
Related Substances (%) Total impurity ([3]; 6 months): 0.26%
Crystal form ([3]; 9 months): Form C
Related Substances (%) Maximum individual impurity ([3]; 9 months): 0.05%
Related Substances (%) Total impurity ([3]; 9 months): 0.26%
Crystal form ([3]; 12 months): Form C
Related Substances (%) Maximum individual impurity ([3]; 12 months): 0.05%
Related Substances (%) Total impurity ([3]; 12 months): 0.27%
stability (related substances) ([3]; within 12 months at 25° C.±2° C.): good stability
Crystal form ([4]; 0 months): Form C
Related Substances (%) Maximum individual impurity ([4]; 0 months): 0.05%
Related Substances (%) Total impurity ([4]; 0 months): 0.26%
Crystal form ([4]; 1 month): Form C
Related Substances (%) Maximum individual impurity ([4]; 1 month): 0.05%
Related Substances (%) Total impurity ([4]; 1 month): 0.25%
Crystal form ([4]; 2 months): Form C
Related Substances (%) Maximum individual impurity ([4]; 2 months): 0.05%
Related Substances (%) Total impurity ([4]; 2 months): 0.26%
Crystal form ([4]; 3 months): Form C
Related Substances (%) Maximum individual impurity ([4]; 3 months): 0.05%
Related Substances (%) Total impurity ([4]; 3 months): 0.26%
Crystal form ([4]; 6 months): Form C
Related Substances (%) Maximum individual impurity ([4]; 6 months): 0.05%
Related Substances (%) Total impurity ([4]; 6 months): 0.28%
stability (related substances) ([4]; within 6 months at 40° C.±2° C.): good stability
Crystal form ([5]; 0 months): Form C
Related Substances (%) Maximum individual impurity ([5]; 0 months): 0.05%
Related Substances (%) Total impurity ([5]; 0 months): 0.26%
Crystal form ([5]; 3 months): Form C
Related Substances (%) Maximum individual impurity ([5]; 3 months): 0.05%
Related Substances (%) Total impurity ([5]; 3 months): 0.26%
Crystal form ([5]; 6 months): Form C
Related Substances (%) Maximum individual impurity ([5]; 6 months): 0.05%
Related Substances (%) Total impurity ([5]; 6 months): 0.27%
Crystal form ([5]; 9 months): Form C
Related Substances (%) Maximum individual impurity ([5]; 9 months): 0.05%
Related Substances (%) Total impurity ([5]; 9 months): 0.25%
Crystal form ([5]; 12 months): Form C
Related Substances (%) Maximum individual impurity ([5]; 12 months): 0.05%
Related Substances (%) Total impurity ([5]; 12 months): 0.26%
stability (related substances) ([5]; within 12 months at 30° C.±2° C.): good stability
crystal form stability (XRPD) ([6]; accelerated (40° C., 75% RH)): no change in crystal form
crystal form stability (XRPD) ([6]; high humidity (25° C., 92.5% RH)): no change in crystal form
crystal form stability (XRPD) ([6]; high temperature (60° C.)): no change in crystal form
crystal form stability (XRPD) ([6]; light (25° C., 4500 Lux)): no change in crystal form
hygroscopicity ([7]; DVS 50%-95%-0%-50% humidity): almost no hygroscopicity
DVS weight loss ([7]; at 0% humidity): 0.13%
DVS weight gain ([7]; at 95% humidity): 0.20%
crystal form after the DVS test (XRPD) ([7]; samples after the DVS test): no change in crystal form
Crystal form ([8]; 0 months): Form C
Related Substances (%) Maximum individual impurity ([8]; 0 months): 0.05%
Related Substances (%) Total impurity ([8]; 0 months): 0.26%
Crystal form ([8]; 3 months): Form C
Related Substances (%) Maximum individual impurity ([8]; 3 months): 0.05%
Related Substances (%) Total impurity ([8]; 3 months): 0.27%
Crystal form ([8]; 6 months): Form C
Related Substances (%) Maximum individual impurity ([8]; 6 months): 0.05%
Related Substances (%) Total impurity ([8]; 6 months): 0.26%
Crystal form ([8]; 9 months): Form C
Related Substances (%) Maximum individual impurity ([8]; 9 months): 0.05%
Related Substances (%) Total impurity ([8]; 9 months): 0.26%
Crystal form ([8]; 12 months): Form C
Related Substances (%) Maximum individual impurity ([8]; 12 months): 0.05%
Related Substances (%) Total impurity ([8]; 12 months): 0.26%
stability (related substances) ([8]; within 12 months at 5° C.±3° C.): good stability
